According to patent US7115749B2, “Substituted 5-oxo pyrazoles and [1,2,4]triazoles as antiviral agents” (priority 2004, dated 2006):

Biological target: HCV RNA-dependent RNA polymerase NS5B (Δ21) (Hepatitis C virus genotype 1b, UniProt P26663)
Test: Assay for HCV RNA-dependent RNA polymerase activity (SPA, [3H]-GTP incorporation)
Type: biochemical
Experimental: Assay for HCV RNA-dependent RNA Polymerase Activity
Inhibitory activity of the present compounds against HCV RNA-dependent RNA polymerase was assayed according to the methods disclosed in U.S. Patent Application U.S.2004/038993, content of which is incorporated herein by reference; and those described in Ferrari, E.; Wright-Minogue, J.; Fang, J. W. S.; Baroudy, B. M.; Lau, J. Y. N.; Hong, Z. J. Virol. 1999, 73, 1649.
Briefly, 50 μl reactions containing 20 mM HEPES (pH 7.3), 7.5 mM DTT, 20 units/ml RNasIN, 0.5 ug/ml biotinylated oligoG12, 5 μg/ml polyC, 5 μM GTP, 20 μCi/ml [^3H]-GTP, 10 mM MgCl2, 60 mM NaCl, 100 μg/ml BSA, and 50 nM NS5B (Δ21) were incubated at room temperature for three hours in 96-well plates with or without test compounds. Assay was terminated by the addition of 50 μl 10 mg/ml streptavidin-coated SPA beads supplemented with 100 mM EDTA, and the incorporation of labeled GTP determined by a TopCount Scintillation Counter. IC50 values were calculated from single experiments using 11 serial 2-fold dilutions (0.05–50 μM), and data were considered reliable only when the IC50 value of a positive internal control was within standard deviation range.

Chain of HCV RNA-dependent RNA polymerase NS5B (Δ21) (P26663 2420-2989, stated change not applied): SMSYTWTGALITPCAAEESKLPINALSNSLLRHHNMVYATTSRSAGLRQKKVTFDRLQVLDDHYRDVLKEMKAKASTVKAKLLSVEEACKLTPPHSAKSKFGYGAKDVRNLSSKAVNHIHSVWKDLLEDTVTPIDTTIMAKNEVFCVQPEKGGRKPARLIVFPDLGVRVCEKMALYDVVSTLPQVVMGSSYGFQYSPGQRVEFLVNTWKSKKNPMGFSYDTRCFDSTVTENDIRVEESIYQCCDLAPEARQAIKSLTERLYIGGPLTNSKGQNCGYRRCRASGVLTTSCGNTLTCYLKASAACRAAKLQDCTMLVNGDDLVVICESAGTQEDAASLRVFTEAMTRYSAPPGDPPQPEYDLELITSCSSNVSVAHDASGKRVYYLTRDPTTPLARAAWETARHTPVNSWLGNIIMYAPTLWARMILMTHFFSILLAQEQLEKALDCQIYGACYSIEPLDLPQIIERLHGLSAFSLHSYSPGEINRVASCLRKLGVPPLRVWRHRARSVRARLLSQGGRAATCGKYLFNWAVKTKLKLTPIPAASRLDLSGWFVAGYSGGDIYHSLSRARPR

Compound | IC50
CS(=O)(=O)c1cccc(-c2ccccc2COc2cc(C(=O)O)nn2CC(=O)N[C@H]2CCCC[C@@H]2OCc2ccccc2)c1 [Compound 51] | 22 µM
CS(=O)(=O)c1ccc(-c2ccccc2COc2cc(C(=O)O)nn2CC(=O)N[C@H]2CCCC[C@@H]2OCc2ccccc2)cc1 [Compound 52] | 9.2 µM
O=C(Cn1nc(C(=O)O)cc1OCc1ccccc1-c1cccc(Cl)c1)N[C@H]1CCCC[C@@H]1OCc1ccccc1 [Compound 53] | 0.78 µM
O=C(Cn1nc(C(=O)O)cc1OCc1ccccc1-c1ccccc1Cl)N[C@H]1CCCC[C@@H]1OCc1ccccc1 [Compound 54] | 2.6 µM
O=C(Cn1nc(C(=O)O)cc1OCc1ccccc1-c1cccc(C(=O)O)c1)N[C@H]1CCCC[C@@H]1OCc1ccccc1 [Compound 55] | > 12.5 µM
O=C(Cn1nc(C(=O)O)cc1OCc1ccccc1-c1ccc(C(=O)O)cc1)N[C@H]1CCCC[C@@H]1OCc1ccccc1 [Compound 56] | > 12.5 µM
O=C(Cn1nc(C(=O)O)cc1OCc1ccccc1-c1cccs1)N[C@H]1CCCC[C@@H]1OCc1ccccc1 [Compound 57] | 2.1 µM
O=C(Cn1nc(C(=O)O)cc1OCc1ccccc1-c1ccsc1)N[C@H]1CCCC[C@@H]1OCc1ccccc1 [Compound 58, 1-[(2-benzyloxy-cyclohexylcarbamoyl)-methyl]-5-(2-thiophen-3-yl-benzyloxy)-1H-pyrazole-3-carboxylic acid] | 0.75 µM
CC(C)(C)COc1cc(C(=O)O)nn1CC(=O)N[C@H]1CCCC[C@@H]1OCc1ccccc1 [Compound 59] | > 12.5 µM
CC(C)COc1cc(C(=O)O)nn1CC(=O)N[C@H]1CCCC[C@@H]1OCc1ccccc1 [Compound 60] | > 50 µM
O=C(Cn1nc(C(=O)O)cc1OCc1ccccc1I)N[C@H]1CCCC[C@@H]1OCc1ccccc1 [Compound 61] | 6.5 µM
Nc1nc2ccc(CNC(=O)Cn3nc(C(=O)O)cc3OCc3ccccc3-c3ccc(C(F)(F)F)cc3)cc2s1 [Compound 62] | > 12.5 µM
O=C(Cn1nc(C(=O)O)cc1OCc1ccccc1-c1ccc(C(F)(F)F)cc1)NCCCc1ccccc1 [Compound 63] | 12 µM
O=C(Cn1nc(C(=O)O)cc1OCc1ccsc1)N[C@H]1CCCC[C@@H]1OCc1ccccc1 [Compound 64] | > 12.5 µM
O=C(Cn1nc(C(=O)O)cc1OCc1cccnc1)N[C@H]1CCCC[C@@H]1OCc1ccccc1 [Compound 65, 1-[(2-benzyloxy-cyclohexylcarbamoyl)-methyl]-5-(pyridin-3-ylmethoxy)-1H-pyrazole-3-carboxylic acid] | > 12.5 µM
O=C(Cn1nc(-c2nnn[nH]2)cc1OCc1ccccc1-c1ccc(C(F)(F)F)cc1)N[C@H]1CCCC[C@@H]1OCc1ccccc1 [Compound 66, N-(2-benzyloxy-cyclohexyl)-2-[3-(1H-tetrazol-5-yl)-5-(4′-trifluoromethyl-biphenyl-2-ylmethoxy)-pyrazol-1-yl]-acetamide] | 0.057 µM
